Test results as given in PMC6480704, “Antiproliferative Aspidosperma-Type Monoterpenoid Indole Alkaloids from Bousigonia mekongensis Inhibit Tubulin Polymerization” (Molecules, 2019).
Entries after “also recorded” stand apart in the source; their conditions may differ. Read-outs that look alike come from different tables or passages of the source.

What was measured:
A549 (lung carcinoma) = assay: Antiproliferative SRB assay, A549; type: cell-based; details: Homo sapiens, read-out: IC50 A549
Description: (§1) We tested the fourteen known aspidosperma-type alkaloids (1–14) against chemosensitive KB (originally isolated from epidermoid carcinoma of the nasopharynx) and P-gp over-expressing multidrug-resistant (MDR) KB subline KB-VIN, as well as three additional human cancer cell lines, A549 (lung carcinoma), MDA-MB-231 (triple negative breast cancer), and MCF-7 (estrogen receptor-positive breast cancer), using a sulforhodamine B (SRB) assay (Table 1).
(§2) Antiproliferative activity was determined by the sulforhodamine B (SRB) colorimetric assay as previously described. In brief, human tumor cell lines were cultured in RPMI-1640 medium containing 2 mM l-glutamine and 25 mM HEPES (Gibco), supplemented with 10% fetal bovine serum (Speciality Media), 100 µg/mL streptomycin, 100 IU/mL penicillin, and 0.25 µg/mL amphotericin B (Corning). MDR stock cells (KB-VIN) were maintained in the presence of 100 nM vincristine (VIN) (Sigma-Aldrich, Saint Louis, MI, USA).
(§3) Freshly trypsinized cell suspensions were seeded in 96-well microtiter plates at densities of 4000–11,000 cells per well (based on the cell lines) with compounds. After 72 h in culture with test compounds, cells were fixed in 10% trichloroacetic acid followed by staining with 0.04% sulforhodamine B (Sigma-Aldrich). The bound SRB was solubilized in 10 mM Tris-base and the absorbance at 515 nm was measured using a Microplate Reader (ELx800, Bio-Tek Instruments, Winooski, VT, USA) operated by Gen5 software (BioTek) after solubilizing the protein-bound dye with 10 mM Tris base. The mean IC50 is the concentration of agent that reduced cell growth by 50% compared with vehicle (DMSO) control under the experimental conditions and is the average from at least three independent experiments with duplicate samples.
(§4) The following human tumor cell lines were used in the assay: A549 (lung carcinoma), MDA-MB-231 (triplen-egative breast cancer), KB (originally isolated from epidermoid carcinoma of the nasopharynx), KB-VIN (VIN-resistant KB subline showing MDR phenotype by overexpressing P-gp), MCF-7 (estrogen receptor (ER)-positive, HER2-negative breast cancer). […] All cell lines were obtained from the Lineberger Comprehensive Cancer Center (UNC-CH) or from ATCC (Manassas, VA), except KB-VIN, which was a generous gift from Professor Y.-C. Cheng (Yale University). Paclitaxel was purchased from Sigma-Aldrich.

[1] = system: MDA-MB-231 (triple negative breast cancer); assay: Antiproliferative SRB assay, MDA-MB-231; type: cell-based; details: Homo sapiens, read-out: IC50 MDA-MB-231
Description: as §1, §2, §3, §4

[2] = system: KB (originally isolated from epidermoid carcinoma of the nasopharynx); assay: Antiproliferative SRB assay, KB; type: cell-based; details: Homo sapiens, 72 h, read-out: IC50 KB
Description: as §1, §2, §3, §4

[3] = system: KB-VIN (VIN-resistant KB subline showing MDR phenotype by overexpressing P-gp); assay: Antiproliferative SRB assay, KB-VIN; details: for IC50: Homo sapiens, KBVIN, 72 h, read-out: IC50 KB-VIN; for fold higher concentration required against KB-VIN cells: KB-VIN compared with chemosensitive cells
Description: as §1, §2, §3, §4

[4] = system: MCF-7 (estrogen receptor-positive breast cancer); assay: Antiproliferative SRB assay, MCF-7; type: cell-based; details: Homo sapiens, read-out: IC50 MCF-7
Description: as §1, §2, §3, §4

[5] = system: A549, MDA-MB-231, KB, KB-VIN, and MCF-7; assay: Antiproliferative SRB assay, values stated across several cell lines; type: cell-based, human; details: for antiproliferative activity (in words): five human tumor cell lines including MDR subline KB-VIN
Description: as §1, §2, §3, §4

KB-VIN cells [6] = assay: Cell cycle analysis by flow cytometry (PI staining); type: cell-based, human; details: 24 h, 1 × IC50 or 3 × IC50
Description: KB-VIN cells were treated with compounds 3, 4, 6, 7, and 13 at their IC50 (1 × IC50) or three-fold IC50 (3 × IC50) concentration, and the cell cycle progression was analyzed by flow cytometer (Figure 2A).
(§5) Figure 2 Mitotic defects in KB-VIN cells treated by compounds. […] Cell cycle distributions (sub-G1, G1, S, G2/M) were analyzed using flow cytometry after staining cells with propidium iodide (PI). […] Fixed cells were stained with antibodies to α-tubulin (green) and phospho-histone H3 (pH3, red), and DAPI was used for DNA (blue). Stained cells were observed by confocal fluorescence microscope. The represented image is a projection of 15~20 optical sections acquired at 0.5~1 µm intervals. […] Bar, 0.025 mm. Additional images are available in Supplementary Figure S1.
KB-VIN cells were seeded in 12-well plates at a density of 1 × 10^5 per well and incubated overnight. […] The DNA contents of stained cells were analyzed by flow cytometer (LSRFortessa, BD Biosciences) controlled by FACSDiva software (BD Biosciences). Paclitaxel (PXL) was used at 3 or 6 µM. […] Experiments were repeated a minimum of two times.

KB-VIN cells [7] = assay: Immunofluorescence staining of α-tubulin, pH3 and DNA; type: cell-based, human; details: 24 h, 3 × IC50
Description: as §5
To determine whether the cell cycle arrest was due to an antimicrotubule effect, cells treated with compounds were analyzed by immunocytochemistry using antibodies to α-tubulin for microtubules and mitotic spindles, Ser10-phosphorylated histone H3 (pH3) for the condensed chromatins and 4′,6-diamidino-2-phenylindole (DAPI) for DNA. […] Thus, we concluded that these alkaloids are tubulin polymerization inhibitors.
Immunocytochemical analysis was performed as previously described. […] After treatment of cells with the agent for 24 h, cells were fixed with 4% paraformaldehyde in PBS and permeabilized with 0.5% Triton X-100 in PBS. Fixed cells were labeled with mouse monoclonal antibody to α-tubulin (B5-1-2, Sigma) and rabbit IgG to Ser10-phosphorylated histone H3 (p-H3) (#06570, EMD Millipore), followed by FITC-conjugated antibody to mouse IgG (Sigma) and Alexa Fluor 549-conjugated antibody to rabbit IgG (Life Technologies). Nuclei were labeled with DAPI (Sigma). Fluorescently-labeled cells were observed using a confocal microscope (Zeiss, LSM700) with ZEN (black edition) software (Zeiss). The 15~20 optical sections acquired at 0.5~1 µm intervals were stacked and reconstructed using ZEN (black edition) software. Experiments were repeated at least twice for each compound. Final images were prepared using Adobe Photoshop CS3.

[8] = Homo sapiens, A549, KB, KB-VIN, range stated for the group of compounds, read-out: IC50 values ranging over A549, KB and KB-VIN cells
[9] = A549, SRB assay, 72 h, positive controls, unit nM
[10] = MDA-MB-231, SRB assay, 72 h, positive controls, unit nM
[11] = SRB assay, positive controls, unit nM
[12] = MCF7, SRB assay, 72 h, positive controls, unit nM

CC[C@]12C=CCN3CC[C@]4(C(=C(C(=O)OC)C1)Nc1ccccc14)[C@@H]32 [Compound 1, tabersonine]
IC50 (A549 (lung carcinoma); A549, 72 h): 6900 ± 100 nM | IC50 ([1]; MDA-MB-231, 72 h): 5900 nM | IC50 [2]: 5500 nM | IC50 [3]: 7.4 ± 0.3 µM | IC50 ([4]; MCF7, 72 h): 7200 ± 400 nM | antiproliferative activity (in words) [5]: exhibited antiproliferative activity against all cell lines

CC[C@]12CCCN3CC[C@]4(C(=C(C(=O)OC)C1)Nc1ccccc14)[C@@H]32 [Compound 2, vincadifformine]
IC50 (A549 (lung carcinoma); A549, SRB assay, 72 h): > 40000 nM | IC50 ([1]; MDA-MB-231, SRB assay, 72 h): > 40000 nM | IC50 ([2]; SRB assay): > 40000 nM | IC50 [3]: > 40 µM | IC50 ([4]; MCF7, SRB assay, 72 h): > 40000 nM | antiproliferative activity (in words) [5]: essentially inactive

CC[C@]12C=C[C@@H](CC(C)=O)N3CC[C@]4(C(=C(C(=O)OC)C1)Nc1ccccc14)[C@@H]32 [Compound 3, 3α-acetonyl-tabersonine]
IC50 (A549 (lung carcinoma); A549, SRB assay, 72 h): 600 nM | IC50 ([1]; MDA-MB-231, SRB assay, 72 h): 900 nM | IC50 ([2]; SRB assay): 600 nM | IC50 [3]: 0.6 ± 0.1 µM | IC50 ([4]; MCF7, SRB assay, 72 h): 2200 ± 200 nM | effect on cell cycle progression (KB-VIN cells [6]): accumulation of cells in the G2/M phase; also recorded: cell cycle arrest at G2/M | microtubule / mitotic spindle morphology (KB-VIN cells [7]): dotted tubulin aggregations without spindles | IC50 [5, 8]: 0.5 to 0.9 µM | antiproliferative activity (in words) [5]: exhibited antiproliferative activity against all cell lines; also recorded: significant antiproliferative effects against all five tumor cell lines

CC[C@@]12CC(C(=O)OC)=C3Nc4ccccc4[C@@]34CCN(C[C@H]3O[C@H]31)[C@@H]24 [Compound 8, pachysiphine]
IC50 (A549 (lung carcinoma); A549, SRB assay, 72 h): 27700 ± 100 nM | IC50 ([1]; MDA-MB-231, SRB assay, 72 h): 34500 ± 200 nM | IC50 ([2]; SRB assay): > 40000 nM | IC50 [3]: > 40 µM | IC50 ([4]; MCF7, SRB assay, 72 h): > 40000 nM | antiproliferative activity (in words) [5]: essentially inactive

CC[C@@]12CC(C(=O)OC)=C3Nc4cc(OC)ccc4[C@@]34CCN(C[C@H]3O[C@H]31)[C@@H]24 [Compound 9, lochnerinine]
IC50 (A549 (lung carcinoma); A549, SRB assay, 72 h): 800 nM | IC50 ([1]; MDA-MB-231, SRB assay, 72 h): 6000 ± 800 nM | IC50 ([2]; SRB assay): 900 nM | IC50 [3]: 0.7 µM | IC50 ([4]; MCF7, SRB assay, 72 h): 10200 ± 500 nM | fold rise in potency by a methoxy group at C-11 ([5]; 6 compared with 5, 9 compared with 8): ~ 60 fold | IC50 [5, 8]: 0.5 to 0.9 µM | antiproliferative activity (in words) [5]: exhibited antiproliferative activity against all cell lines

COC(=O)C1=C2Nc3ccccc3C23CCN2CC=CC(C(C)O)(C1)C23 [Compound 10, 19-(R)-hydroxytabersonine]
IC50 (A549 (lung carcinoma); A549, SRB assay, 72 h): > 40000 nM | IC50 ([1]; MDA-MB-231, SRB assay, 72 h): > 40000 nM | IC50 ([2]; SRB assay): > 40000 nM | IC50 [3]: > 40 µM | IC50 ([4]; MCF7, SRB assay, 72 h): > 40000 nM | antiproliferative activity (in words) [5]: essentially inactive

COC(=O)C1=C2Nc3ccccc3C23CCN2CC=CC(C(C)OC(C)=O)(C1)C23 [Compound 11, 19-(R)-acetoxytabersonine]
IC50 (A549 (lung carcinoma); A549, SRB assay, 72 h): > 40000 nM | IC50 ([1]; MDA-MB-231, SRB assay, 72 h): > 40000 nM | IC50 ([2]; SRB assay): 26500 ± 2500 nM | IC50 [3]: > 40 µM | IC50 ([4]; MCF7, SRB assay, 72 h): > 40000 nM | antiproliferative activity (in words) [5]: essentially inactive | IC50 ([5]; five human tumor cell lines, read-out: IC50 range over the cell lines tested): > 26.5 µM

CC[C@]12C=CCN3CC[C@]4(C(=C(C(=O)OC)C1)Nc1cc(OC)ccc14)[C@@H]32 [Compound 12, 11-methoxytabersonine]
IC50 (A549 (lung carcinoma); A549, SRB assay, 72 h): 5200 ± 100 nM | IC50 ([1]; MDA-MB-231, SRB assay, 72 h): 6800 ± 1100 nM | IC50 ([2]; SRB assay): 5400 ± 400 nM | IC50 [3]: 5.8 ± 0.1 µM | IC50 ([4]; MCF7, 72 h): 8200 ± 900 nM | antiproliferative activity (in words) [5]: exhibited antiproliferative activity against all cell lines

COC(=O)C1=C2Nc3cc(OC)ccc3C23CCN2CC=CC(C(C)OC(C)=O)(C1)C23 [Compound 14, 19-(R)-acetoxy-11-methoxytabersonine]
IC50 (A549 (lung carcinoma); A549, SRB assay, 72 h): > 40000 nM | IC50 ([1]; MDA-MB-231, SRB assay, 72 h): > 40000 nM | IC50 ([2]; SRB assay): > 40000 nM | IC50 [3]: > 40 µM | IC50 ([4]; MCF7, SRB assay, 72 h): > 40000 nM | antiproliferative activity (in words) [5]: essentially inactive

CC(=O)O[C@H]1C(=O)[C@@]2(C)[C@H]([C@H](OC(=O)c3ccccc3)[C@]3(O)C[C@H](OC(=O)[C@H](O)[C@@H](NC(=O)c4ccccc4)c4ccccc4)C(C)=C1C3(C)C)[C@]1(OC(C)=O)CO[C@@H]1C[C@@H]2O [PXL, paclitaxel, reference compound]
IC50 (A549 (lung carcinoma); [9]): 4.5 ± 0.9 nM | IC50 [1, 10]: 7 ± 0.9 nM | IC50 [2, 11]: 3.7 ± 1.1 nM | IC50 [3]: 2.36 ± 0.0595 µM | fold higher concentration required against KB-VIN cells [3]: 600 fold | IC50 [4, 12]: 8.8 ± 1 nM

CC[C@]1(O)C[C@H]2CN(CCc3c([nH]c4ccccc34)[C@@](C(=O)OC)(c3cc4c(cc3OC)N(C=O)[C@H]3[C@@](O)(C(=O)OC)[C@H](OC(C)=O)[C@]5(CC)C=CCN6CC[C@]43[C@@H]65)C2)C1 [VIN, vincristine, reference compound]
IC50 (A549 (lung carcinoma); [9]): 22.9 ± 2.4 nM | IC50 [1, 10]: 32 ± 0.5 nM | IC50 [2, 11]: 4.4 ± 0.1 nM | IC50 [3]: 2.48 ± 0.0282 µM | fold higher concentration required against KB-VIN cells [3]: 600 fold | IC50 [4, 12]: 7.3 ± 0.2 nM | microtubule / mitotic spindle morphology (KB-VIN cells [7]): with multipolar spindles
